Results as given in patent EP1674096A2, “Hypoglycemics comprising organic zinc (II) complexes” (Japan Science and Technology Agency, priority 1999, dated 2001).

Experiments:
rat adipocyte = assay: Inhibition of free fatty acid (FFA) release from epinephrine-stimulated rat adipocytes; format: cell-based; details: concentration inhibiting release of the fatty acid by 50 %, relative values with IC50 of VOSO4 regarded as 1.00 mM, 10^-5 M epinephrine, 3 hours at 37°C, glycine complex in aqueous solution, others in physiological saline
Procedure: A pharmacological test was conducted as described below in accordance with the method reported in Biol.Pharm.Bull., 18, 719-725 (1995).
A male Wistar rat weighing 200 g was exsanguinated under an anesthesia with ether, and a fat cell mass was isolated from a fat tissue around an epididymis according to the method of Road Bell (J. Biol. Chem. , 239, 375(1964)). The fat cell mass was cut into pieces using scissors, and digested for 1 hour at 37°C in a KRB buffer solution (5 mM Glucose, 120 mM NaCl, 1.27 mM CaCl2, 1.2 mM MgSO4, 4.75 mM KCl, 1.2 mM KH2PO4 and 24 […]; pH=7.4) supplemented with 20 mg of bovine serum albumin (BSA) and 2 mg of collagenase per ml. The fat cells were sieved through a nylon mesh (250 µm) whereby being made free from any undigested tissue, washed three times with the buffer similar to that described above except for containing no collagenase, and adjusted at 2.5 x 10^6 cells/ml.
Then the reaction mixture was combined with 10^-5 M epinephrine and the resultant solution was incubated for 3 hours at 37°C. The reaction was quenched by cooling with ice, and the mixture was centrifuged for 10 minutes at 3000 rpm. The extracellular solution was examined for its free fatty acid (FFA) level using an NEFA kit whereby calculating an IC50 value.

KK-A^y mice [1] = assay: Glucose tolerance test in KK-A^y mice after 3 days of treatment; format: in vivo; details: 4 mg/kg once a day for 3 days, then fasted for 14 hours, compared with mice not receiving the complex (Figure 3)
Procedure: Subsequently, KK-A^y mice as type II diabetes model animals and humans were subjected to the glucose tolerance tests to obtain blood glucose curves, which are shown in Figure 3 and Figure 4.
In Figure 3, (a) denotes a blood glucose curve obtained in a glucose tolerance test in mice each of which received 4 mg/kg of Zn(PA)2(H2O)2 as an inventive zinc (II) complex once a day for 3 days and then fasted for 14 hours, and (b) denotes one in a control group in which the mice were not treated with the complex. In Figure 4, (a) denotes a blood glucose curve obtained in a glucose tolerance test in diabetes patients, while (b) denotes one in normal healthy volunteers.

KK-A^y mice [2] = assay: Glucose tolerance test in KK-A^y mice after 15 days of treatment; format: in vivo; details: KK-A^y mice fasted for 13 hours, glucose orally at 1 g/kg; compared with control mice (Figure 12)
Procedure: 8-Week old KK-A^y mice were treated intraperitoneally once a day with a 5 % acacia solution in a control group (n=6) or with Zn(PA)2 (n=6), Zn(maltol)2 (n=7) or Zn(Cys-OMe)2 (n=6) dissolved in a 5 % acacia solution in the complex treatment groups.
(§1) In the control group, 0.5 ml of the acacia solution was given.
(glucose tolerance test: A mouse was fasted for 13 hours and then administered orally with glucose at 1 g/kg, and then the blood glucose levels were determined at certain time intervals.)

KK-A^y mice [3] = assay: Body weight change in KK-A^y mice under daily intraperitoneal treatment (index of side effects); format: in vivo; details: intraperitoneally once a day, 4.5 or 2.5 mg Zn/kg depending on blood glucose, 13 to 15 days (Figures 9 to 11)
Procedure: as §1

[4] = Glucose +, 6-methyl-picolinic acid and pyridine-2-acetic acid complexes in DMSO

Row | Compound | IC50 (rat adipocyte; Glucose -) | IC50 (rat adipocyte; [4]) | also measured
1 | O=c1cc(CO)occ1O [Zn(Koj)2] | 0.91 mM |  | 
2 | bis(2-mercaptopyridine-N-oxide) zinc (II) complex [Zn(MPNO)2/0.3H2O] | 0.013 mM | 0.011 mM | 
3 | O=C(O)C1CSCN1 [Zn(D-4Tia)2] | 1.28 mM |  | 
4 | O.O.O=C([O-])c1ccccn1.O=C([O-])c1ccccn1.[Zn+2] [trans-[Zn(PA)2H2O)2], trans-bis(picolinate) zinc (II) complex] |  |  | blood glucose curve in glucose tolerance test (KK-A^y mice [1]): a reduced peak level of the blood glucose followed by a rapid decrease, as compared with the mice not receiving the complex and then recovered its almost normal blood glucose level after 180 minutes; glucose tolerance test after the administration of each complex for 15 days (KK-A^y mice [2]): an amelioration of the diabetes conditions when compared with the diabetes mice (control mice); body weight change (weight loss as an index of side effects) (KK-A^y mice [3]): not observed in most of the animals
5 | O=C(O)C1CSCN1 [Zn(L-4Tia)2] | 1.2 mM |  | 
6 | O=C(O)c1cccc(Br)n1 [Zn(6BPA)2] | 0.45 mM |  | 
7 | cis-bis(threonine) zinc (II) complex [cis-[Zn(Thr)2(H2O)2]] | 1.3 mM |  | 
8 | Cc1cccc(C(=O)[O][Zn][O]C(=O)c2cccc(C)n2)n1 [Zn(6MPA)2(H2O), bis(6-methyl-picolinate)zinc(II)complex] |  | 0.39 mM | 
9 | O=C([O-])c1cccnc1.O=C([O-])c1cccnc1.[Zn+2] [Zn(Nic)2/4H2O] |  | 0.82 mM | 
10 | NC(=O)CC[C@H](N)C(=O)O [Zn(Gln)2] |  | 0.84 mM | 
11 | bis(3-hydroxy-2-methyl-4-pyronate) zinc (II) complex [Zn(maltol)2/2.6H2O] |  | 0.57 mM | glucose tolerance test after the administration of each complex for 15 days (KK-A^y mice [2]): an amelioration of the diabetes conditions when compared with the diabetes mice (control mice); body weight change (weight loss as an index of side effects) (KK-A^y mice [3]): immediately after the treatment with the complex, the body weight was recovered in response to the reduction in the blood glucose and the reduction in the dose
12 | COC(=O)C(N)C[S-].COC(=O)C(N)C[S-].[Zn+2] [Zn(Cys-OMe)2, bis(L-cysteine methyl ester) zinc (II) complex] |  |  | body weight change (weight loss as an index of side effects) (KK-A^y mice [3]): no increase or decrease in the body weight was observed
13 | bis(pyrrolidine-N-dithiocarbamate) zinc (II) complex [Zn(PCD)2] | 0.049 mM |  | 
14 | trans-bis(glycine) zinc (II) complex [Zn(Gly)2/1.0H2O] | 0.84 mM | 0.63 mM | 
15 | Cc1cccnc1C(=O)O [Zn(3MPA)2] | 0.42 mM |  | 
16 | O=S(=O)([O-])[O-].[O]=[V+2] [VOSO4/5.4 or 2.3H2O, Oxovanadium sulfate, reference compound] | 1 mM | 1 mM | 
